Assay results as given in article PMC6733504, “Effects of flavoring compounds used in electronic cigarette refill liquids on endothelial and vascular function” (PLoS ONE, 2019).
pEC50: −log10 of the molar value.

Key:
[1] = tested on: rat aortic rings; experiment: Relaxation of U-46619 precontracted aortic rings to DEA/NO; details: read-out: EC50 of vascular relaxation to DEA/NO
Description: Animal experiments were performed in compliance with the Austrian law on experimentation with laboratory animals (last amendment 2013) based on the European Union guidelines for the Care and the Use of Laboratory Animals (European Union Directive 2010/63/EU). Unsexed Sprague-Dawley rats (obtained from Charles River, Sulzfeld, Germany) were housed at the local animal facility in approved cages. They were fed standard chow (Altromin 3023; obtained from Königshofer Futtermittel, Ebergassing, Austria) and received water ad libitum. Animals were euthanized in a box that was gradually filled with CO2 until vital signs had ceased (cessation of respiration and circulation). […]
For isometric tension measurements, vessel rings with intact endothelium were suspended in 5-ml organ baths containing oxygenated Krebs-Henseleit buffer (concentrations in mM: NaCl 118.4, NaHCO3 25, KCl 4.7, KH2PO4 1.2, CaCl2 2.5, MgCl2 1.2, D-Glucose 11; pH 7.4), as previously described in detail. After equilibration for 60 min at the optimal resting tension of 20 mN, maximal contractile activity was determined with a depolarizing solution containing 60 mM K^+. […]
Effects are expressed as percent of relaxation of U-46619-induced contraction. Concentration-response curves of different ring segments from a single animal were averaged and counted as an individual experiment.

[2] = target: T1, soluble guanylate cyclase (sGC) (Bos taurus, UniProt P16068+P19687); experiment: Activity of purified sGC stimulated with DEA/NO; format: biochemical, bovine; details: control
T1 construct: The activity of sGC purified from bovine lung; from tissue; host or cells: bovine lung
T1 sequence (P19687 1-691): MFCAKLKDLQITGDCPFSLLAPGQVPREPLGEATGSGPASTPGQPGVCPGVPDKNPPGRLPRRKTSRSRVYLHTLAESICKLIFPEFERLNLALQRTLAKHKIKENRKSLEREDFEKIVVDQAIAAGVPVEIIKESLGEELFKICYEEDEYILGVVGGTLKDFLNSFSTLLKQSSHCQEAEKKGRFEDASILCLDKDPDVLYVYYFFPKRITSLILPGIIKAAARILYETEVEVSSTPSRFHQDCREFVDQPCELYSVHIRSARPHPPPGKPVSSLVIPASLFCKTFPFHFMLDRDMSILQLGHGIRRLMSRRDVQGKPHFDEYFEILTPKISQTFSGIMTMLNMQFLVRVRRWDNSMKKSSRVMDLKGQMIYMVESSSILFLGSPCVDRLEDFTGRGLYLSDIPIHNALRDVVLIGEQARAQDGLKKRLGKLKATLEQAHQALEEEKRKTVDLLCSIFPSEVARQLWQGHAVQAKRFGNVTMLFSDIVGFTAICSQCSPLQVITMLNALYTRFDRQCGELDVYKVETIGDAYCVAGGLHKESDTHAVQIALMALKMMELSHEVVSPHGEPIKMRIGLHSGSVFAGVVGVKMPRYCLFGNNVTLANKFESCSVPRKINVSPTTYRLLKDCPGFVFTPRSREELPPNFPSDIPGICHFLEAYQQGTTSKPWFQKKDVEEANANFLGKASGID
T1 sequence (P16068 1-619): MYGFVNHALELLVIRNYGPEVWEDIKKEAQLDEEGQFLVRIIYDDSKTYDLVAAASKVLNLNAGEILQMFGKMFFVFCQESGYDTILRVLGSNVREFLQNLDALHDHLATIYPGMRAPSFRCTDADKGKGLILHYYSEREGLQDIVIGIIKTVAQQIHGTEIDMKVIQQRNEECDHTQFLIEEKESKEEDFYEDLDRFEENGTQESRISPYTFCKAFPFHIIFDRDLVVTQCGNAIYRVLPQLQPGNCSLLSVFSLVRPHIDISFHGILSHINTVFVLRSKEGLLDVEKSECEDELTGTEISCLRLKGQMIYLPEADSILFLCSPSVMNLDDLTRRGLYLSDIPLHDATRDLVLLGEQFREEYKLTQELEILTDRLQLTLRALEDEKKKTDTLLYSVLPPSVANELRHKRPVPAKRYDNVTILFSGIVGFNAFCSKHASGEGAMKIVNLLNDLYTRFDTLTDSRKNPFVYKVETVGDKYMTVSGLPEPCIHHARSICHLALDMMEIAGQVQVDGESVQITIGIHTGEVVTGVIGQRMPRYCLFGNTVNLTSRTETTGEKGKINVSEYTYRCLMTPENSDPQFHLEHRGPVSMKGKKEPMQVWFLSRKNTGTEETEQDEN
Description: The activity of sGC purified from bovine lung was determined as formation of [^32P]cGMP from [α-^32P]GTP. The purified enzyme (50 ng) was incubated at 37°C for 10 min in a final volume of 0.1 ml in the absence or presence of flavorings with the NO donor DEA/NO at concentrations indicated in the figure legends, followed by isolation of [^32P]cGMP and quantification of radioactivity (Cerenkov radiation) in a β counter.
To test for reversibility of inhibition, sGC (50 ng) was preincubated in the absence or presence of the respective compounds for 5 minutes at 37°C, followed by 50-fold dilution in the assay mixtures and incubation with DEA/NO at 37°C for 10 minutes.

[3] = tested on: endothelium-denuded rat aortic rings; experiment: cAMP and cGMP levels in endothelium-denuded aortic rings; details: 10 µM
Excerpt: 1 S4 Table. […]
2 endothelium-denuded rat aortic rings.
Flavoring (fmol x mg-1) (fmol x mg-1)
4 En d o th e liu m-denuded rings, treated with test compounds as described in the
5 Materials and methods section of the main text, were freeze-clamped when maximal
6 relaxation had been reached. Rings were homogenized in 5% trichloroacetic acid
7 and analyzed for cAMP and cGMP by radioimmunoassay. Forskolin and DEA/NO
8 were used to induce maximal accumulation of cAMP and cGMP, respectively. Data
9 shown are mean values±SEM of 3 (forskolin and DEA/NO) or 6 (basal,
10 cinnamaldehyde and eugenol) rings; n.d., not determined, *p<0.05 vs. basal (ANOVA
11 and Dunnett's post hoc test).

SMILES: CCN(CC)[N+]([O-])=NO [DEA/NO, 2,2-Diethyl-1-nitroso-oxyhydrazine, reference compound]
- pEC50 [1]: 7.37
- Maximal sGC activity with DEA/NO ([2]; no flavoring): 28±0.9 μmol cGMP x min^-1 x mg^-1
- pEC50 ([2]; no flavoring (0.1% DMSO), 95% CI, read-out: EC50 of DEA/NO for sGC stimulation): 7.43
- cGMP [3]: 4917±1483 fmol x mg-1
